Test results taken from ChEMBL document CHEMBL5696442, “Discovery of type II inhibitors of TGFβ-activated kinase 1 (TAK1) and mitogen-activated protein kinase kinase kinase kinase 2 (MAP4K2)” (J Med Chem, 2015).

Tests used:
Format in all cases: cell-based
[1] = target: T1, Serine/threonine-protein kinase ULK1 (Homo sapiens) (UniProt O75385); test: Inhibition of ULK1 Lys2 labeling site in human A-375 cells at 0.5 uM by KiNativ Profiling analysis relative to control
T1 sequence (whole entry): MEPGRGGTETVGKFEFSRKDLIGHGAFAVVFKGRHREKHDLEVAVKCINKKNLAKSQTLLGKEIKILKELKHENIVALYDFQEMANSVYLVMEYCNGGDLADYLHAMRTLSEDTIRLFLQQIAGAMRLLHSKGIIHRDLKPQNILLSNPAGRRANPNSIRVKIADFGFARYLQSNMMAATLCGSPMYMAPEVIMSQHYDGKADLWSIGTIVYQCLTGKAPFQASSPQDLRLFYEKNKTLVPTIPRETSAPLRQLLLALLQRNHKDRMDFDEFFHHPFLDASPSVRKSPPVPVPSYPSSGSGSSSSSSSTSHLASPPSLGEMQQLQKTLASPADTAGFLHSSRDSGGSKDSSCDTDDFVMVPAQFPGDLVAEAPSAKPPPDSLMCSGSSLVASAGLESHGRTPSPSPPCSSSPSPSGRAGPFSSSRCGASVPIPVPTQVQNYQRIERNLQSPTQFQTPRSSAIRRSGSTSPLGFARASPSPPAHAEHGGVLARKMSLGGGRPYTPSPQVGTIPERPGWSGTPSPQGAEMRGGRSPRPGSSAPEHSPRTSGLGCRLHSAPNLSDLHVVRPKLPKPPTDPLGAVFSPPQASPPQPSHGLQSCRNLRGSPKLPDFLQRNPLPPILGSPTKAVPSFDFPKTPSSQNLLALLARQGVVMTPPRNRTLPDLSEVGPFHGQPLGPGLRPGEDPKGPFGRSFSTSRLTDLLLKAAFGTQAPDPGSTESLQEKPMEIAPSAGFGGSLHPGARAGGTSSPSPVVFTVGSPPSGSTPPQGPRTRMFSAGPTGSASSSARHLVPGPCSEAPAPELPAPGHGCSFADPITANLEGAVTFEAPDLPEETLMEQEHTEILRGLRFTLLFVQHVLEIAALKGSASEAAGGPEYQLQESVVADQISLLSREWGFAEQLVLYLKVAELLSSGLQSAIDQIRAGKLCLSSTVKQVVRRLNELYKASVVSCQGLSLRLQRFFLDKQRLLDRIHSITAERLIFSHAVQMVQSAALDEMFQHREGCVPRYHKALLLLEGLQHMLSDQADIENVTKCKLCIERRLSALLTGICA

[2] = target: T2, NUAK family SNF1-like kinase 1 (Homo sapiens) (UniProt O60285); test: Inhibition of NuaK1 K2 labeling site in human Huh-7 cells at 10 uM by KiNativ Profiling analysis relative to control
T2 sequence (whole entry): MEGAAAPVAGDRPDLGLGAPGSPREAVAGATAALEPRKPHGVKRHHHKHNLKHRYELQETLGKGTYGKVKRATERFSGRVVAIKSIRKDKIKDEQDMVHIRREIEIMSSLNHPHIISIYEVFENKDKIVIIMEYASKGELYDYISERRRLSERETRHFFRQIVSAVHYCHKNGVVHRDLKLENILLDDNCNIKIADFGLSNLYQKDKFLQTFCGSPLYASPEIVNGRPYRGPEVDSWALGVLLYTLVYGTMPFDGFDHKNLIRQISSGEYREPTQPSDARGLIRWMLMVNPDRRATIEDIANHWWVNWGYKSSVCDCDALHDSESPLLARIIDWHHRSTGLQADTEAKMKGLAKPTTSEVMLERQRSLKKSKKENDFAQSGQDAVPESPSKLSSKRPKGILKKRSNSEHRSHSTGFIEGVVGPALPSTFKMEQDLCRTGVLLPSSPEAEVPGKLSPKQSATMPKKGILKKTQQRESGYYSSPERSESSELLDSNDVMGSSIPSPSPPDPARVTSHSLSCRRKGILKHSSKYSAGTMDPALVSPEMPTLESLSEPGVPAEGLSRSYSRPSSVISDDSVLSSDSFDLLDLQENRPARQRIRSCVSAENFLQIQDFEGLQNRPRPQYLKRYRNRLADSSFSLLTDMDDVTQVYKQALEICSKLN

[3] = target: Casein kinase I isoform epsilon (Homo sapiens) (UniProt P49674); test: Inhibition of CK1epsilon Lys2 labeling site in human A-375 cells at 5 uM by KiNativ Profiling analysis relative to control
Casein kinase I isoform epsilon (Homo sapiens), sequence (P49674 whole entry, looked up, canonical isoform): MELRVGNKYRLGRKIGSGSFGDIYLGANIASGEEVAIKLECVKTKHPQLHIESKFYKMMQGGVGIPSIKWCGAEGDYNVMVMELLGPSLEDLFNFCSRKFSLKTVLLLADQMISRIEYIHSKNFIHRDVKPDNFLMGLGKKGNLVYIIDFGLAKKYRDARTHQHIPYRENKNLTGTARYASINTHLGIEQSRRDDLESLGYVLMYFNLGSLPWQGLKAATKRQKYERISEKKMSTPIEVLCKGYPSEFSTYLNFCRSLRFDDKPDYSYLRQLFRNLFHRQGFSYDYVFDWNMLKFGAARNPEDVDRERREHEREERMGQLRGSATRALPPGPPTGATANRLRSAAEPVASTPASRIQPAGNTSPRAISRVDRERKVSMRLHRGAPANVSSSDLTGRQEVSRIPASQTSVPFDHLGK

Row | Compound | inhibition [1] [%] | inhibition [2] [%] | inhibition [3] [%]
1 | CCN1CCN(Cc2ccc(NC(=O)c3ccc(C)c(Oc4ccnc5[nH]ccc45)c3)cc2C(F)(F)F)CC1 | -6.3 | 35.4 | 
2 | CCN1CCN(Cc2ccc(NC(=O)c3ccc(C)c(/C=C/c4cnc5[nH]ccc5c4OC)c3)cc2C(F)(F)F)CC1 |  |  | 1.4
